The values below come from patent US5637619A, “Antitumor 2-aminocarbonyl-1, 2-bis(methylsulfonyl)-1-(substituted)hydrazines” (Yale University, priority 1995, dated 1997).

Entries after “also recorded” stand apart in the source; their conditions may differ.

The subject of one data set is L1210 leukemia. In words: L1210 leukemia survival time in mice (ip implanted). Type of data set: in vivo, mice (CD2F1). To be noted: for %T/C (average survival time treated/control × 100): cures not included. On the procedure:
(§1) Leukemia L1210 cells were obtained from the Frederick Cancer Research Facility, Division of Cancer Treatment Tumor Repository of the National Cancer Institute, and were maintained by serial passage in tissue culture. Every 8 weeks, tumor cells were injected intraperitoneally into five donor CD2 F1 mice 8- to 10- weeks of age and were allowed to grow for 7 days. The peritoneal fluid was withdrawn and the suspension was centrifuged for 5 min at 1600 g. The supernatant was decanted and 10^5 cells/mL were seeded into 10 mL of RPMI 1640 medium supplemented with 10% fetal bovine serum and 1% L-glutamine, and once again maintained in culture. To assay for antineoplastic activity, 0.1 mL of the cell suspension containing 10^5 L1210 leukemia cells was injected ip into each recipient mouse. Test compounds were administered over a wide range of dosage levels, beginning 24 h after tumor implantation, and continued once daily for 6 consecutive days. All drugs were administered ip as a solution in 100% dimethylsulfoxide (DMSO), in a volume not exceeding 0.025 mL. […] Mice were weighed during the course of the experiments, and the percentage change in body weight from onset to termination of therapy was used as an indication of drug toxicity. Determination of the sensitivity of neoplasms to these agents was based upon the prolongation of survival time afforded by the drug treatments.
(§2) ^a Administered ip once daily for six consecutive days, beginning 24 hours after tumor implantation, with 5-10 mice being used per group. ^b Average percent change in body weight from onset to termination of therapy. ^c % T/C=average survival time of treated/control mice×100; cures (>60-day survivors) are listed separately and are not included in this calculation.

In data set [1] the test system is LX-1 human lung carcinoma. In words: LX-1 human lung carcinoma xenograft, sc in athymic mice. The format is in vivo, human tumor in athymic (nu/nu) mice. The conditions noted are these: 40 mg/kg/injection, q2d × 5 from day 6, iv, 100% DMSO. On the procedure:
(§3) The M5076 reticulum cell sarcoma was passaged biweekly by sc transfer of tumor fragments into C57BL/6 mice, and the M109 lung carcinoma was similarly passaged in BALB/c mice. The LX-1 human lung carcinoma was passaged sc every two to three weeks in BALB/c-background athymic (nu/nu) mice. For use in these systems, compound III was dissolved in: (a) 100% DMSO and administered by iv injection in a fixed volume of 10 microliters; or (b) DMSO diluted with saline to a final concentration of 10% DMSO and administered iv in a volume of 0.01 milliliter/g of body weight. […] Mitomycin C and cyclophosphamide were dissolved and administered in saline. BCNU and MeCCNU were dissolved in ethanol and diluted 1:9 (v/v) with water prior to administration.
Five mice per group were employed in experiments with the B16F10 melanoma, and 8 mice per group with the M5076 sarcoma, the M109 carcinoma and the LX-1 carcinoma. A minimum of two dose levels per compound were included in each evaluation and drug therapy was initiated 24 h after tumor implantation for the M5076 sarcoma and M109 carcinoma. In the LX-1 experiment, tumor bearing mice were selected and sorted into treatment and control groups on day 6 post-tumor implant such that all tumor weights ranged from 50-100 mg and median tumor weights per group were reasonably similar. Therapeutic results are presented in terms of: (a) increases in lifespan reflected by the relative median survival time (MST) of treated versus control groups (i.e., %T/C values), and by long-term survivors, and (b) primary tumor growth inhibition (i.e., T-C values) determined by calculating the relative median times for treated (T) and control untreated (C) mice to grow tumors of a 0.5 g size for the LX-1 carcinoma or a 1 g size for the murine neoplasms. Tumor weights were interchangeable with tumor size on the basis of 1 mm^3 =1 mg. […] The activity criterion for tumor inhibition was a delay in tumor growth consistent with one log10 cell kill (LCK). The absolute T-C value needed to attain this level of efficacy varied from experiment to experiment and depended upon the tumor volume doubling time of the control mice in each study. Treated mice dying prior to day 10 in the ip M109 experiment, or dying before their tumors achieved 0.5 g for the LX-1 carcinoma or 1 g in size for all other sc tumor models, were considered to have died from drug toxicity. Groups of mice with more than one death due to drug toxicity were not used in the evaluation of antitumor efficacy. Statistical evaluations of data were performed using Gehan's generalized Wilcoxan test (Gehan, Biometrika, 1965, 52, 203-233).
The human lung tumor, LX-1, xenografted sc in athymic mice, was also used to examine the antineoplastic potential of compound III. […]
A general note: Xenograft models place foreign cells or tissue in a host animal.

Another data set concerns M109 lung carcinoma. In words: M109 lung carcinoma, ip implanted. The format is in vivo, BALB/c mice. The conditions noted are these: 50 mg/kg/injection, q4d × 3, ip, 10% DMSO in saline; highest dose tested. On the procedure:
as §3
(§4) Five mice per group were employed in experiments with the B16F10 melanoma, and 8 mice per group with the M5076 sarcoma, the M109 carcinoma and the LX-1 carcinoma. […] Therapeutic results are presented in terms of: (a) increases in lifespan reflected by the relative median survival time (MST) of treated versus control groups (i.e., %T/C values), and by long-term survivors, and (b) primary tumor growth inhibition (i.e., T-C values) determined by calculating the relative median times for treated (T) and control untreated (C) mice to grow tumors of a 0.5 g size for the LX-1 carcinoma or a 1 g size for the murine neoplasms. […]

Data set [2] is described as follows: Body weight change / toxicity in L1210-bearing mice. Type of data set: in vivo, mice (CD2F1). The conditions noted are these: for Av. Wt. Change %: L1210-bearing mice. On the procedure: as §1, §2
For data set [3], the system named is several more stringent distal site tumor models. In words: Comparison with clinically active alkylating agents in several distal site tumor models. The format is in vivo, mice. The conditions noted are these: qualitative summary. On the procedure:
B16F10 melanoma cells were grown in vitro as monolayers in minimum essential medium with Hank's salts supplemented with 10% fetal bovine serum and 1% 200 mM L-glutamine solution. Solid tumors were produced in C57BL/6 female mice 12- to 14-weeks of age by the intradermal injection in the right flank of each mouse of 0.1 mL of a cell suspension containing 10^6 B16F10 cells/mL from freshly trypsinized cultures. After 10-12 days, animals bearing approximately 100 mm^3 tumors were treated ip with compound III or IV dissolved in 100% DMSO for 6 consecutive days, and tumor volumes were measured on alternate days until reaching 1000 mm^3. […]
as §4

Turning to `CS(=O)(=O)N(CCCl)N(C(=O)NCCCl)S(C)(=O)=O` [Compound III, 1,2-bis(methylsulfonyl)-1-(2-chloroethyl)-2-(2-chloroethyl)aminocarbonylhydrazine], the “% 60 Day Survivors (cures)” value with L1210 leukemia (10 mg/kg ip once daily × 6) is 100%; with L1210 leukemia (15 mg/kg ip once daily × 6), 80%; with L1210 leukemia (20 mg/kg ip once daily × 6), 80%. The “%T/C (average survival time treated/control × 100)” value in the data set on L1210 leukemia (15 mg/kg ip once daily × 6) was determined as 216%; in the data set on L1210 leukemia (20 mg/kg ip once daily × 6) it was 239%. Moreover, the “antileukemic activity / therapeutic potential (in words)” value in the data set on L1210 leukemia (qualitative, L1210 leukemia in mice) was “One of the most active and potent compounds in the series; also recorded: much better therapeutic potential than the amino acid ester derivatives”. Besides, the “T-C, median delay in tumor growth to 0.5 g” value in data set [1] is 14.5 days. Moreover, the “log10 cell kill (LCK)” value in data set [1] turned out to be 1.6 LCK. Besides, the “%T/C (median survival time)” value in the data set with M109 lung carcinoma was found to be 267%. For the same compound, the “Av. Wt. Change %” value was -4.7% in data set [2] (10 mg/kg ip once daily × 6), -4.0% in data set [2] (15 mg/kg ip once daily × 6) and -10.4% in data set [2] (20 mg/kg ip once daily × 6). The “loss in body weight” value in data set [2] (20 mg/kg × 6) was 10.4%. The “toxicity (in words)” value in data set [2] (20 mg/kg × 6) was “somewhat toxic”. Also, the “antitumor activity versus clinical alkylating agents (in words)” value in data set [3] was “better than or equal to some of the best clinically active alkylating agents used for comparison”.
